Test results reported in US20110082130A1 (LIGAND PHARMACEUTICALS, INC., priority 2006, published 2011).

Each compound was assayed against T1, chimeric human H3 receptor (Homo sapiens, UniProt Q9Y5N1) (assay: Chimeric human H3 receptor GTP binding assay (agonist-stimulated GTP-gamma35S binding, Example 7)). Details: Table I; P2 membranes of Sf9 cells, 1 μM histamine as agonist, Ki from IC50 by Cheng-Prusoff.
T1 construct: made in house; host or cells: Sf9 insect cells (baculovirus); P2 membrane preparation
T1 sequence (Q9Y5N1 with tags, fused parts or gaps): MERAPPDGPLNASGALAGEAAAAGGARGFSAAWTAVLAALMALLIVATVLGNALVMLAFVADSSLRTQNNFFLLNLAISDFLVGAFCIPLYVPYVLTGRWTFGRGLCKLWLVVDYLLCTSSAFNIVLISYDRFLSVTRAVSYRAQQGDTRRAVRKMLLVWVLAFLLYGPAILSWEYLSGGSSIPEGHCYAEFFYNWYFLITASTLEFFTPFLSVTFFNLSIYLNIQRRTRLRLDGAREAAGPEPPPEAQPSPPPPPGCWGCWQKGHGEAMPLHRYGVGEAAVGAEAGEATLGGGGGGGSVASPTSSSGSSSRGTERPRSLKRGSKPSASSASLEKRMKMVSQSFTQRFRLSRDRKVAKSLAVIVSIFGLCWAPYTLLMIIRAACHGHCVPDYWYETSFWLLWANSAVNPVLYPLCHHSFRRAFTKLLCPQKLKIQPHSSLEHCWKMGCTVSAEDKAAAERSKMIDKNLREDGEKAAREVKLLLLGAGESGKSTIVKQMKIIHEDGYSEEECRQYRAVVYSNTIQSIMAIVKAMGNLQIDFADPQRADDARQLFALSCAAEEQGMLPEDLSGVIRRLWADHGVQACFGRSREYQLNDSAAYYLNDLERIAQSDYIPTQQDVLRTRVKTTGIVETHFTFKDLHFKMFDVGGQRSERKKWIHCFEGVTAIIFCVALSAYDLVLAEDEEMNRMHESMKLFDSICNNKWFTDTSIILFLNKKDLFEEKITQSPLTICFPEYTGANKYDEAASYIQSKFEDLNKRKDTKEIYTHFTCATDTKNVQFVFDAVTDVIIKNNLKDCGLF
Assay type: biochemical
Summary of the method: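 Sf9 membranes co-expressing chimeric human H3 receptor and heterotrimeric G-protein, 35 μg/tube, in pH 7.4 Tris buffer with 10 μM GDP. Test compounds (10^−10–10^−6 M) competed against 1 μM histamine, […] GTP-gamma35S, 60 min at room temperature. Filter-bound radioactivity counted; IC50 converted to Ki by Cheng-Prusoff. Agonism/inverse agonism tested without histamine (EC50).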

Ki, < 1000 nM:
O=C(CN1CCc2cc(-c3cncnc3)ccc2C1)N1CCN(C2CCC2)CC1 [Compound 70, 2-[2-(4-cyclobutylpiperazin-1-yl)-2-oxoethyl]-6-pyrimidin-5-yl-1,2,3,4-tetrahydrasoquinoline]
O=C(CN1CCc2ccccc2C1)N1CCN(C2CCCC2)CC1 [Compound 46, 2-[2-(4-cyclopentylpiperazin-1-yl)-2-oxoethyl]-1,2,3,4-tetrahydroisoquinoline]
CS(=O)(=O)c1cccc(-c2ccc3c(c2)CCN(CC(=O)N2CCN(C4CCC4)CC2)C3)c1 [Compound 74, 2-[2-(4-cyclobutylpiperazin-1-yl)-2-oxoethyl]-6-[3-(methylsulfonyl)phenyl]-1,2,3,4-tetrahydroisoquinoline]

Same assay, conditions: Table II "Ki", symbol *; assay of Example 7

Ki, < 1000 nM:
CCOc1ccc(-c2ccc3c(c2)CCN(CC(=O)N2CCN(C4CCCC4)CC2)C3)cc1 [Compound 529, 2-[2-(4-cyclopentylpiperazin-1-yl)-2-oxoethyl]-6-(4-ethoxyphenyl)-1,2,3,4-tetrahydroisoquinoline]
O=C(CN1CCc2nc(NCC3CC3)ccc2C1)N1CCN(C2CCC2)CC1 [Compound 650, 6-[2-(4-cyclobutylpiperazin-1-yl)-2-oxoethyl]-N-(cyclopropylmethyl)-5,6,7,8-tetrahydro-1,6-naphthyridin-2-amine]
CO[C@H]1CCN(c2ccc3c(n2)CCN(CC(=O)N2CCN(C4CCC4)CC2)C3)C1 [Compound 670, 6-[2-(4-cyclobutylpiperazin-1-yl)-2-oxoethyl]-2-[(3S)-3-methoxypyrrolidin-1-yl]-5,6,7,8-tetrahydro-1,6-naphthyridine]
COc1cccc(-c2ccc3c(c2)CCN(CC(=O)N2CCN(C4CCC4)CC2)C3)n1 [Compound 633, 2-[2-(4-cyclobutylpiperazin-1-yl)-2-oxoethyl]-6-(6-methoxypyridin-2-yl)-1,2,3,4-tetrahydroisoquinoline]

Same assay, conditions: Table II; "*" = Ki in assay of Example 7 less than 1 micromolar

Ki, < 1000 nM:
COc1ccc(-c2ccc3c(n2)CCN(CC(=O)N2CCN4C(C)CCC[C@H]4C2)C3)cc1 (stereo in doubt) [Compound 178, 2-(4-methoxyphenyl)-6-[2-(6-methyloctahydro-2H-pyrido[1,2-a]pyrazin-2-yl)-2-oxoethyl]-5,6,7,8-tetrahydro-1,6-naphthyridine]
CC(=O)c1ccc(-c2nc3c(s2)CN(CC(=O)N2CCN(C4CCC4)CC2)CC3)cc1 [Compound 98, 1-(4-{5-[2-(4-cyclobutylpiperazin-1-yl)-2-oxoethyl]-4,5,6,7-tetrahydro[1,3]thiazolo [5,4-c]pyridin-2-yl}phenyl)ethanone]
O=C(CN1CCc2nc(-c3ccccc3)ncc2C1)N1CCN(C2CCC2)CC1 [Compound 247, 6-[2-(4-cyclobutylpiperazin-1-yl)-2-oxoethyl]-2-phenyl-5,6,7,8-tetrahydropyrido[4,3-d]pyrimidine]
O=C(CN1CCc2cc(-c3ccc4nccn4c3)ccc2C1)N1CCN(C2CCC2)CC1 [Compound 231, 2-[2-(4-cyclobutylpiperazin-1-yl)-2-oxoethyl]-6-imidazo[1,2-a]pyridin-6-yl-1,2,3,4-tetrahydroisoquinoline]
O=C(CN1CCc2nc(-c3ccncc3)ncc2C1)N1CCN(C2CCC2)CC1 [Compound 137, 6-[2-(4-cyclobutylpiperazin-1-yl)-2-oxoethyl]-2-pyridin-4-yl-5,6,7,8-tetrahydropyrido[4,3-d]pyrimidine]
COc1ncc(-n2ncc3c2CCN(CC(=O)N2CCN(C4CCC4)CC2)C3)cn1 [Compound 257, 5-[2-(4-cyclobutylpiperazin-1-yl)-2-oxoethyl]-1-(2-methoxypyrimidin-5-yl)-4,5,6,7-tetrahydro-1H-pyrazolo[4,3-c]pyridine]
O=C(CN1CCc2nn(-c3ccc(C(F)(F)F)cc3)cc2C1)N1CCN(C2CCC2)CC1 [Compound 237, 5-[2-(4-cyclobutylpiperazin-1-yl)-2-oxoethyl]-2-[4-(trifluoromethyl)phenyl]-4,5,6,7-tetrahydro-2H-pyrazolo[4,3-c]pyridine]
CCN(C)c1ccc2c(n1)CCN(CC(=O)N1CCN(C3CCC3)CC1)C2 [Compound 245, 6-[2-(4-cyclobutylpiperazin-1-yl)-2-oxoethyl]-N-ethyl-N-methyl-5,6,7,8-tetrahydro-1,6-naphthyridin-2-amine]
O=C(CN1CCc2nc(N3CCOCC3)cnc2C1)N1CCN(C2CCC2)CC1 [Compound 240, 6-[2-(4-cyclobutylpiperazin-1-yl)-2-oxoethyl]-2-morpholin-4-yl-5,6,7,8-tetrahydropyrido[3,4-b]pyrazine]
CS(=O)(=O)c1ccc(-c2nc3c(s2)CCN(CC(=O)N2CCN(C4CCC4)CC2)C3)cc1 [Compound 105, 5-[2-(4-cyclobutylpiperazin-1-yl)-2-oxoethyl]-2-[4-(methylsulfonyl)phenyl]-4,5,6,7-tetrahydro[1,3]thiazolo [4,5-c]pyridine]
Cn1cc(-c2ccc3c(c2)CCN(CC(=O)N2CCN(C4CCC4)CC2)C3)cnc1=O [Compound 266, 5-{2-[2-(4-cyclobutylpiperazin-1-yl)-2-oxoethyl]-1,2,3,4-tetrahydroisoquinolin-6-yl}-1-methylpyrimidin-2(1H)-one]
O=C(CN1CCc2c(cnn2-c2ccc(Br)cc2)C1)N1CCN(C2CCC2)CC1 [Compound 90, 1-(4-bromophenyl)-5-[2-(4-cyclobutylpiperazin-1-yl)-2-oxoethyl]-4,5,6,7-tetrahydro-1H-pyrazolo[4,3-c]pyridine]
CC(=O)c1ccc(-n2cc3c(n2)CCN(CC(=O)N2CCN(C4CCC4)CC2)C3)nc1 [Compound 96, 1-(6-{5-[2-(4-cyclobutylpiperazin-1-yl)-2-oxoethyl]-4,5,6,7-tetrahydro-2H-pyrazolo[4,3-c]pyridin-2-yl}pyridin-3-yl)ethanone]
CC1CCC[C@H]2CN(C(=O)CN3CCc4nc(N5CCC(F)(F)CC5)ccc4C3)CCN12 (stereo in doubt) [Compound 180, 2-(4,4-difluoropiperidin-1-yl)-6-[2-(6-methyloctahydro-2H-pyrido[1,2-a]pyrazin-2-yl)-2-oxoethyl]-5,6,7,8-tetrahydro-1,6-naphthyridine]
CCOC(=O)c1cnc2c(c1)CCN(CC(=O)N1CCN(C3CCC3)C(C)C1)C2 (stereo not drawn) [Compound 117, ethyl 7-[2-(4-cyclobutyl-3-methylpiperazin-1-yl)-2-oxoethyl]-5,6,7,8-tetrahydro-1,7-naphthyridine-3-carboxylate]
O=C(CN1CCc2nc(N3CCOCC3)ccc2C1)N1CCN(C2CCC2)CC1 [Compound 175, 6-[2-(4-cyclobutylpiperazin-1-yl)-2-oxoethyl]-2-morpholin-4-yl-5,6,7,8-tetrahydro-1,6-naphthyridine]
CC1CN(c2ccc3c(n2)CCN(CC(=O)N2CCN4C(C)CCC[C@H]4C2)C3)CC(C)O1 (stereo in doubt) [Compound 179, 2-(2,6-dimethylmorpholin-4-yl)-6-[2-(6-methyloctahydro-2H-pyrido[1,2-a]pyrazin-2-yl)-2-oxoethyl]-5,6,7,8-tetrahydro-1,6-naphthyridine]

Same assay, conditions: Table II; assay of Example 7

Ki, < 1000 nM:
N#CC1CCN(c2ncc3c(n2)CCN(CC(=O)N2CCN(C4CCC4)CC2)C3)CC1 [Compound 690, 1-{6-[2-(4-cyclobutylpiperazin-1-yl)-2-oxoethyl]-5,6,7,8-tetrahydropyrido[4,3-d]pyrimidin-2-yl}piperidine-4-carbonitrile]

Same assay, conditions: assay of Example 7; "*" in Ki of Table II

Ki, < 1000 nM:
O=C(CN1CCc2nc(-c3cccc(Cl)c3Cl)sc2C1)N1CCN(C2CCC2)CC1 [Compound 358, 5-[2-(4-cyclobutylpiperazin-1-yl)-2-oxoethyl]-2-(2,3-dichlorophenyl)-4,5,6,7-tetrahydro[1,3]thiazolo [5,4-c]pyridine]
O=C(CN1CCc2nc(-c3ccccc3C(F)(F)F)sc2C1)N1CCN(C2CCC2)CC1 [Compound 360, 5-[2-(4-cyclobutylpiperazin-1-yl)-2-oxoethyl]-2-[2-(trifluoromethyl)phenyl]-4,5,6,7-tetrahydro[1,3]thiazolo [5,4-c]pyridine]
O=C(CN1CCc2nn(-c3ncc(Br)cn3)cc2C1)N1CCN(C2CCC2)CC1 [Compound 287, 2-(5-bromopyrimidin-2-yl)-5-[2-(4-cyclobutylpiperazin-1-yl)-2-oxoethyl]-4,5,6,7-tetrahydro-2H-pyrazolo[4,3-c]pyridine]
COc1cccc(-c2ccc3c(c2)CCN(CC(=O)N2CCN(C4CCCC4)CC2)C3)c1 [Compound 476, 2-[2-(4-cyclopentylpiperazin-1-yl)-2-oxoethyl]-6-(3-methoxyphenyl)-1,2,3,4-tetrahydroisoquinoline]
O=C(CN1CCc2nc(-c3ccccc3Cl)sc2C1)N1CCN(C2CCC2)CC1 [Compound 357, 2-(2-chlorophenyl)-5-[2-(4-cyclobutylpiperazin-1-yl)-2-oxoethyl]-4,5,6,7-tetrahydro[1,3]thiazolo [5,4-c]pyridine]
CS(=O)(=O)c1cccc(-c2ccc3c(c2)CCN(CC(=O)N2CCN(C4CCCC4)CC2)C3)c1 [Compound 394, 2-[2-(4-cyclopentylpiperazin-1-yl)-2-oxoethyl]-6-[3-(methylsulfonyl)phenyl]-1,2,3,4-tetrahydroisoquinoline]
COc1ccc(-n2ncc3c2CCN(CC(=O)N2CCN(C4CCC4)CC2)C3)nn1 [Compound 290, 5-[2-(4-cyclobutylpiperazin-1-yl)-2-oxoethyl]-1-(6-methoxypyridazin-3-yl)-4,5,6,7-tetrahydro-1H-pyrazolo[4,3-c]pyridine]
O=C(CN1CCc2cc(-c3cncnc3)ccc2C1)N1CCN(C2CCCC2)CC1 [Compound 392, 2-[2-(4-cyclopentylpiperazin-1-yl)-2-oxoethyl]-6-pyrimidin-5-yl-1,2,3,4-tetrahydroisoquinoline]
